Where two headings read alike, the source gives them in different places.
Tested on: streptavidin
Method: The fluid channel was at first flown with Tris buffer from syringe A into the device 400 received at the corresponding inlet 411.
The acquired signals were measured from the drain current of the exemplary FET 432. […] This was similarly repeated with 1 mM streptavidin protein in the Tris buffer from syringe B. For example, 20 mM Tris buffer (pH=7.4) was prefilled in the channel and then 1 mM avidin was flowed in the 20 mM Tris buffer in the channel.

## O=C(O)CCCC[C@@H]1SC[C@@H]2NC(=O)N[C@@H]21 [biotin]
pre-mixed 0.2 mM streptavidin with 4 mM biotin (1:20) in Tris buffer
  binding indicated by FET signal waveform: some biotin molecules have bonded with streptavidin
pre-mixed 1 mM streptavidin with 4 mM biotin in Tris buffer
  binding indicated by FET signal waveform: streptavidin and biotin bind together

Reference: patent US20190187148A1, “BIOMOLECULAR INTERACTION DETECTION DEVICES AND METHODS” (The Regents of the University of California, priority 2013, published 2019)
